The values below come from patent US20140275090A1, “BILE ACID RECYCLING INHIBITORS FOR TREATMENT OF PRIMARY SCLEROSING CHOLANGITIS AND INFLAMMATORY BOWEL DISEASE” (Lumena Pharmaceuticals, Inc., priority 2013, published 2014).

This experiment deals with fecal bile acids. The experiment is described as follows: Phase 1 ascending multiple oral doses of LUM001 in healthy adults: fecal bile acid analysis. The experiment is classed as in vivo, human. To be noted: 28 days. How it is done: This Phase 1 study was a randomized, double-blind, placebo-controlled study of ascending multiple oral doses of LUM001 in healthy, adult subjects. This study was conducted at a single center. There were 13 LUM001 dosing panels: 10, 20, 60, 100, and 20 mg every morning (qAM) (2) (i.e., the regimen was tested a second time in the study), 5 mg every evening (qPM), 0.5, 1, 2.5, 5, 2.5 (2), 5 (2), and 0.5 to 5 mg qAM dose titration. Most of the dosing panels included subjects treated with matching placebo. No subject participated in more than 1 dosing panel. […]
On Day 1 of the Treatment Period, subjects who qualified for enrollment were randomized in the order in which they were admitted to the research facility. […] The safety and tolerability of LUM001 were evaluated by physical examination, ascertainment of adverse signs and symptoms, and clinical laboratory studies. […]
Fecal samples were collected for all panels except the dose-titration panel, 2.5 (2) and 5 mg (2), on Days 9 through 14 and 23 through 28 (data shown in FIG. 6; *p<0.05; **p<0.01 compared to placebo). Twenty-four hour FBA excretions were quantified by Pharmacia for Days 9 through 14 and 23 through 28. […] The weight of each 24-hour fecal collection was recorded on the CRFs. […]
An aliquot for each 24-hour fecal sample collected on Days 23 through 28 was combined, homogenized, and analyzed for bile acid species concentrations by ANAPHARM. […]

With `CCCCC1(CCCC)CS(=O)(=O)c2ccc(N(C)C)cc2[C@@H](c2ccc(OCc3ccc(C[N+]45CCN(CC4)CC5)cc3)cc2)[C@H]1O` [LUM001], the “effect on fecal bile acids” value is “significant increase”.
